From ChEMBL document CHEMBL3885861, “Open TG-GATES”

Species on record: Rattus norvegicus
Assay: Open TG-GATES - Regimen: Daily Repeat
Assay type: toxicity, organism-based, Sprague-Dawley
Parameters: regimen Daily Repeat, gender Male, age 6 weeks
Conditions: in vivo, po, route gavage; for APTT / Bas / Eos / Fbg / Hb / Ht / Lym / MCH / MCHC / MCV / Mono / Neu / PT / Plat / RBC / Ret / WBC: tissue Blood; for KIDNEY_L / KIDNEY_R / KIDNEY_TOTAL: tissue Kidney; for LIVER: tissue Liver; for A/G / ALP / ALT / AST / BUN / CRE / Ca / Cl / DBIL / GLC / IP / K / LDH / Na / PL / RALB / TBIL / TC / TG / TP / gamma-GTP: tissue Plasma
[1] = 100 mg/kg, 72 h, dose level Middle, time 3 day
[2] = 100 mg/kg, […], dose level Middle, time 7 day
[3] = 100 mg/kg, […], dose level Middle, time 14 day
[4] = 100 mg/kg, […], dose level Middle, time 28 day
[5] = 300 mg/kg, 72 h, dose level High, time 3 day
[6] = 300 mg/kg, […], dose level High, time 7 day
[7] = 300 mg/kg, […], dose level High, time 14 day
[8] = 300 mg/kg, […], dose level High, time 28 day

## CCOC(=O)C(C)(C)Oc1ccc(Cl)cc1 [CLOFIBRATE]
[1]
  TERMINAL_BW: 242.5 g
  APTT: 18.9 s
  Bas: 0%
  Eos: 1%
  Fbg: 210.8 mg/dL
  Hb: 13.4 g/dL
  Ht: 38.4%
  Lym: 80.2%
  MCH: 21.6 pg
  MCHC: 35%
  MCV: 61.8 fL
  Mono: 2.6%
  Neu: 15.6%
  PT: 12.4 s
  Plat: 131.7 x10_4/uL
  RBC: 621.6 x10_4/ul
  Ret: 4.9%
  WBC: 117.6 x10_2/uL
  KIDNEY_L: 1.1 g
  KIDNEY_R: 1.1 g
  KIDNEY_TOTAL: 2.2 g
  LIVER: 12.5 g
  A/G: 1.7
  ALP: 1054.4 IU/L
  ALT: 38.2 IU/L
  AST: 70.2 IU/L
  BUN: 16 mg/dL
  CRE: 0.4 mg/dL
  Ca: 10.8 mg/dL
  Cl: 102.6 meq/L
  DBIL: 0.076 mg/dL
  GLC: 198.4 mg/dL
  IP: 6.3 mg/dL
  K: 4 meq/L
  LDH: 215 IU/L
  Na: 141 meq/L
  PL: 120 mg/dL
  RALB: 3.4 g/dL
  TBIL: 0.1 mg/dL
  TC: 55.6 mg/dL
  TG: 82.4 mg/dL
  TP: 5.4 g/dL
  gamma-GTP: 0.6 IU/L
[2]
  TERMINAL_BW: 270.9 g
  APTT: 22.7 s
  Bas: 0%
  Eos: 1%
  Fbg: 200.6 mg/dL
  Hb: 14 g/dL
  Ht: 40%
  Lym: 79.2%
  MCH: 21.2 pg
  MCHC: 35.1%
  MCV: 60.5 fL
  Mono: 3%
  Neu: 16.6%
  PT: 12.4 s
  Plat: 132.4 x10_4/uL
  RBC: 660.6 x10_4/ul
  Ret: 4.9%
  WBC: 99.6 x10_2/uL
  KIDNEY_L: 1.1 g
  KIDNEY_R: 1.2 g
  KIDNEY_TOTAL: 2.3 g
  LIVER: 14.5 g
  A/G: 1.9
  ALP: 856.8 IU/L
  ALT: 32.8 IU/L
  AST: 61 IU/L
  BUN: 16.8 mg/dL
  CRE: 0.4 mg/dL
  Ca: 10.4 mg/dL
  Cl: 102.8 meq/L
  DBIL: 0.07 mg/dL
  GLC: 211.2 mg/dL
  IP: 7.3 mg/dL
  K: 3.5 meq/L
  LDH: 207.2 IU/L
  Na: 141 meq/L
  PL: 108.8 mg/dL
  RALB: 3.7 g/dL
  TBIL: 0.1 mg/dL
  TC: 49.8 mg/dL
  TG: 53.4 mg/dL
  TP: 5.6 g/dL
  gamma-GTP: 1 IU/L
[3]
  TERMINAL_BW: 321.6 g
  APTT: 20.3 s
  Bas: 0%
  Eos: 1%
  Fbg: 204.2 mg/dL
  Hb: 13.6 g/dL
  Ht: 39.5%
  Lym: 81.8%
  MCH: 20 pg
  MCHC: 34.3%
  MCV: 58.2 fL
  Mono: 2.6%
  Neu: 14.2%
  PT: 12.7 s
  Plat: 130.4 x10_4/uL
  RBC: 679 x10_4/ul
  Ret: 4.2%
  WBC: 153.1 x10_2/uL
  KIDNEY_L: 1.3 g
  KIDNEY_R: 1.3 g
  KIDNEY_TOTAL: 2.6 g
  LIVER: 17 g
  A/G: 1.7
  ALP: 933 IU/L
  ALT: 38.4 IU/L
  AST: 63.4 IU/L
  BUN: 16.4 mg/dL
  CRE: 0.4 mg/dL
  Ca: 10.2 mg/dL
  Cl: 101.8 meq/L
  DBIL: 0.06 mg/dL
  GLC: 223.8 mg/dL
  IP: 6.1 mg/dL
  K: 3.8 meq/L
  LDH: 183.8 IU/L
  Na: 140.4 meq/L
  PL: 120.2 mg/dL
  RALB: 3.5 g/dL
  TBIL: 0.1 mg/dL
  TC: 55 mg/dL
  TG: 63.4 mg/dL
  TP: 5.6 g/dL
  gamma-GTP: 1 IU/L
[4]
  TERMINAL_BW: 398.1 g
  APTT: 21.7 s
  Bas: 0%
  Eos: 1.2%
  Fbg: 211.2 mg/dL
  Hb: 14.7 g/dL
  Ht: 41.8%
  Lym: 83.8%
  MCH: 19.1 pg
  MCHC: 35.1%
  MCV: 54.3 fL
  Mono: 2%
  Neu: 12.8%
  PT: 12.1 s
  Plat: 110.4 x10_4/uL
  RBC: 769.4 x10_4/ul
  Ret: 2.1%
  WBC: 141.2 x10_2/uL
  KIDNEY_L: 1.5 g
  KIDNEY_R: 1.5 g
  KIDNEY_TOTAL: 3 g
  LIVER: 20.1 g
  A/G: 1.7
  ALP: 726.6 IU/L
  ALT: 38.2 IU/L
  AST: 71 IU/L
  BUN: 15.8 mg/dL
  CRE: 0.4 mg/dL
  Ca: 10.5 mg/dL
  Cl: 102.4 meq/L
  DBIL: 0.08 mg/dL
  GLC: 208.6 mg/dL
  IP: 6.1 mg/dL
  K: 3.6 meq/L
  LDH: 236.8 IU/L
  Na: 141 meq/L
  PL: 132 mg/dL
  RALB: 3.8 g/dL
  TBIL: 0.1 mg/dL
  TC: 54.8 mg/dL
  TG: 106.2 mg/dL
  TP: 6 g/dL
  gamma-GTP: 1 IU/L
[5]
  TERMINAL_BW: 242 g
  APTT: 20.5 s
  Bas: 0%
  Eos: 1%
  Fbg: 199.2 mg/dL
  Hb: 13.2 g/dL
  Ht: 37.7%
  Lym: 73.8%
  MCH: 21 pg
  MCHC: 34.9%
  MCV: 60.3 fL
  Mono: 3.2%
  Neu: 21.8%
  PT: 12.3 s
  Plat: 125.3 x10_4/uL
  RBC: 625.4 x10_4/ul
  Ret: 3.9%
  WBC: 91.3 x10_2/uL
  KIDNEY_L: 1.1 g
  KIDNEY_R: 1.1 g
  KIDNEY_TOTAL: 2.2 g
  LIVER: 14.9 g
  A/G: 1.9
  ALP: 928.8 IU/L
  ALT: 42 IU/L
  AST: 70.2 IU/L
  BUN: 14.2 mg/dL
  CRE: 0.4 mg/dL
  Ca: 10.6 mg/dL
  Cl: 101.8 meq/L
  DBIL: 0.06 mg/dL
  GLC: 200.4 mg/dL
  IP: 5.9 mg/dL
  K: 3.9 meq/L
  LDH: 220.2 IU/L
  Na: 140.6 meq/L
  PL: 102.2 mg/dL
  RALB: 3.5 g/dL
  TBIL: 0.1 mg/dL
  TC: 43.6 mg/dL
  TG: 46.6 mg/dL
  TP: 5.3 g/dL
  gamma-GTP: 0.8 IU/L
[6]
  TERMINAL_BW: 267.7 g
  APTT: 21.4 s
  Bas: 0%
  Eos: 0.6%
  Fbg: 212.8 mg/dL
  Hb: 13.3 g/dL
  Ht: 38.9%
  Lym: 81.4%
  MCH: 20.9 pg
  MCHC: 34.3%
  MCV: 61.1 fL
  Mono: 3.2%
  Neu: 14.4%
  PT: 12.3 s
  Plat: 132.7 x10_4/uL
  RBC: 639.6 x10_4/ul
  Ret: 5.1%
  WBC: 129.1 x10_2/uL
  KIDNEY_L: 1.1 g
  KIDNEY_R: 1.2 g
  KIDNEY_TOTAL: 2.3 g
  LIVER: 18 g
  A/G: 2.1
  ALP: 1006.8 IU/L
  ALT: 31.4 IU/L
  AST: 62.8 IU/L
  BUN: 17.2 mg/dL
  CRE: 0.4 mg/dL
  Ca: 10.7 mg/dL
  Cl: 102 meq/L
  DBIL: 0.058 mg/dL
  GLC: 214.2 mg/dL
  IP: 7.4 mg/dL
  K: 3.5 meq/L
  LDH: 285 IU/L
  Na: 141.2 meq/L
  PL: 92.2 mg/dL
  RALB: 4 g/dL
  TBIL: 0.1 mg/dL
  TC: 37.6 mg/dL
  TG: 44.2 mg/dL
  TP: 5.9 g/dL
  gamma-GTP: 1 IU/L
[7]
  TERMINAL_BW: 303.4 g
  APTT: 21.9 s
  Bas: 0%
  Eos: 0.6%
  Fbg: 187.4 mg/dL
  Hb: 13.6 g/dL
  Ht: 39.6%
  Lym: 78.8%
  MCH: 19.9 pg
  MCHC: 34.4%
  MCV: 57.8 fL
  Mono: 3.4%
  Neu: 16.8%
  PT: 12.5 s
  Plat: 115.9 x10_4/uL
  RBC: 684.8 x10_4/ul
  Ret: 3.9%
  WBC: 125.1 x10_2/uL
  KIDNEY_L: 1.3 g
  KIDNEY_R: 1.3 g
  KIDNEY_TOTAL: 2.6 g
  LIVER: 19.3 g
  A/G: 2.2
  ALP: 750.6 IU/L
  ALT: 41.8 IU/L
  AST: 59.6 IU/L
  BUN: 17.6 mg/dL
  CRE: 0.4 mg/dL
  Ca: 10.5 mg/dL
  Cl: 101.4 meq/L
  DBIL: 0.062 mg/dL
  GLC: 228.2 mg/dL
  IP: 6.1 mg/dL
  K: 3.8 meq/L
  LDH: 172 IU/L
  Na: 140.4 meq/L
  PL: 113.2 mg/dL
  RALB: 4 g/dL
  TBIL: 0.1 mg/dL
  TC: 44 mg/dL
  TG: 46.4 mg/dL
  TP: 5.9 g/dL
  gamma-GTP: 0.8 IU/L
[8]
  TERMINAL_BW: 368.7 g
  APTT: 22 s
  Bas: 0%
  Eos: 1%
  Fbg: 187.6 mg/dL
  Hb: 14.6 g/dL
  Ht: 41.5%
  Lym: 80.2%
  MCH: 19.1 pg
  MCHC: 35.1%
  MCV: 54.4 fL
  Mono: 3.4%
  Neu: 15.2%
  PT: 12.3 s
  Plat: 109.1 x10_4/uL
  RBC: 762.4 x10_4/ul
  Ret: 2%
  WBC: 121.5 x10_2/uL
  KIDNEY_L: 1.5 g
  KIDNEY_R: 1.6 g
  KIDNEY_TOTAL: 3.1 g
  LIVER: 21.8 g
  A/G: 1.9
  ALP: 787 IU/L
  ALT: 43.4 IU/L
  AST: 70.8 IU/L
  BUN: 15.4 mg/dL
  CRE: 0.4 mg/dL
  Ca: 10.2 mg/dL
  Cl: 101.8 meq/L
  DBIL: 0.068 mg/dL
  GLC: 190 mg/dL
  IP: 5.1 mg/dL
  K: 3.6 meq/L
  LDH: 208.6 IU/L
  Na: 140.4 meq/L
  PL: 120.6 mg/dL
  RALB: 4 g/dL
  TBIL: 0.1 mg/dL
  TC: 46 mg/dL
  TG: 47.6 mg/dL
  TP: 6.1 g/dL
  gamma-GTP: 0.6 IU/L
